Tests used:
[1] = test system: MCF7 adenocarcinoma cell line; assay: Cell proliferation studies in MCF7 cells (ATP-Lite, 10 days); format: cell-based; conditions: Homo sapiens, 240 h, read-out: PROLIFERATION_CTG_MCF7 IC50
Protocol: Cell Proliferation Studies in MCF7 Cells
Cell proliferation studies were conducted in MCF7 adenocarcinoma cell line. Cells were maintained in DMEM (Coming, Catalog #: 10-013-CV) supplemented with 10% v/v FBS (Gibco, Catalog #: 26140-079), 1% v/v Penicillin Streptomycin (Gibco, Catalog #15140-122) Cells were seeded in 384-well plates at a density of 100 or 200 cells/well. Compounds dissolved in DMSO were plated in quadruplicate using a digital dispenser (D300E, Tecan) and tested on a 9-point 3-fold serial dilution. Cells were incubated for 10 days in a 37° C. active humidified incubator at 5% CO2. A media exchange and second compound addition were performed on day 5. Cell viability was measured using the ATP-Lite 1-Step Luminescence reagent (Perkin Elmer, Catalog #: 6016731) as per manufacturer's instructions. Luminescence signal was measured with a multimode plate reader (Envision 2105, Perkin Elmer). Raw data files were imported to Dotmatics Screening Ultra for IC50 analysis. Luminescence values were normalized to both background and DMSO controls to obtain a percentage of viable cells relative to DMSO vehicle control.

[2] = target: CDK4/Cyclin D1 (Homo sapiens (Human), UniProt P11802); assay: CDK4/CyclinD1 enzymatic activity assay (TR-FRET); format: biochemical; conditions: ATP 2 mM, read-out: CDK4_D1 IC50
Sequence of CDK4/Cyclin D1 (P11802 whole entry): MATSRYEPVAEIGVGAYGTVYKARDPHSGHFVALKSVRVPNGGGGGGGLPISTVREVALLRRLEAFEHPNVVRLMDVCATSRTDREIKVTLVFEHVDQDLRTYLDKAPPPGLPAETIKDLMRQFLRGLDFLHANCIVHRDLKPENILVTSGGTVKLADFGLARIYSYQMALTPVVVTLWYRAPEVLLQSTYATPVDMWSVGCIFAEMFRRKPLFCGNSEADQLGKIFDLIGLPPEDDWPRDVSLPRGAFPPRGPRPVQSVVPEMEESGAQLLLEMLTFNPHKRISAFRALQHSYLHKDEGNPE
Sequence of CDK4/Cyclin D1 (P24385 whole entry partner): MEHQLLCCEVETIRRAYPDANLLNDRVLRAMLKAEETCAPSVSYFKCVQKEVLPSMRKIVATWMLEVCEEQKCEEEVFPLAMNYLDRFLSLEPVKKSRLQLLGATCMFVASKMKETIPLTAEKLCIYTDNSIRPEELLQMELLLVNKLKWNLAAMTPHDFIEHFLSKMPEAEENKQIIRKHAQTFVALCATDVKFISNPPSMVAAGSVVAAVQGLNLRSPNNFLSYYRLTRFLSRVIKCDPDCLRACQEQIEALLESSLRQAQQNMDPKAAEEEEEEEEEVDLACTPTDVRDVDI
Protocol: CDK4/CyclinD1 Enzymatic Activity Assay
The inhibitory activity of compounds was evaluated in vitro using TR-FRET assay with white 384-well low volume microplate (Greiner Bio-One). CDK4/Cyclin D1 catalyzed phosphorylation of peptide in the presence and absence of compounds was measured. IC50 determination. Recombinant protein complex CDK4/Cyclin D1, expressed from insect cell, was purchased from ProQinase. Testing compounds were dissolved in DMSO at 0.1 mM and tested in 9-dose IC50 mode. The reaction mixture was prepared by mixing CDK4/CyclinD1 (1 nM final), ULight-4E-BP1 (100 nM final, Perkinelmer, TRF0128-D), and ATP (2 mM final) in assay buffer (20 mM of HEPES pH 7.4, 1 mM of EGTA, 0.05% BSA, 0.005% Tween 20, and 1 mM TCEP). The compound of interest in DMSO was added to each well in 3-fold serial dilution by dispenser (TECAN D300E). After 20 minutes preincubation at room temperature, MgCl2 (10 mM final) was added to initiate the reaction. Following a 60 minutes incubation at 37° C., the reaction was stopped by addition of 2 μL of quenching buffer consisting of Lance detection buffer (Perkinelmer CR97-100C), 2 nM LANCE Ultra Europium-anti-P-4E-BP1 (Perkinelmer, TRF0216-D), 10 mM EDTA, and incubate at room temperature for additional 60 minutes in dark. The reaction signal was measured by Envision multimode plate reader (PerkinElmer, 2102-0010). IC50 values were determined by fitting the data to the standard 4 parameters with Hill Slope using GraphPad Prism software.

SMILES | IC50 [1] [nM] | IC50 [2] [nM]
Cc1c(-c2nc(Nc3ccc(C4CC[C@H]5CN(C)C(=O)CN45)cn3)ncc2F)sc2c1nc(C)n2C(C)C (single isomer, unassigned) [Example 118] | 200 to 2000 | ≤ 20
CCN1CCC(c2ccc(Nc3ncc(F)c(-c4sc5c(nc(C)n5C5CCCC5)c4C)n3)nc2)CC1 [Example 5, 4-(3-Cyclopentyl-2,6-dimethyl-3H-thieno[2,3-d]imidazol-5-yl)-N-(5-(1-ethylpiperidin-4-yl)pyridin-2-yl)-5-fluoro-pyrimidin-2-amine] | 20 to 200 | 20 to 200
Cc1c(-c2nc(Nc3ccc(C4CCN(C)CC4)cn3)ncc2F)sc2c1nc(C)n2C1CCCC1 [Example 6, 4-(3-Cyclopentyl-2,6-dimethyl-3H-thieno[2,3-d]imidazol-5-yl)-5-fluoro-N-(5-(1-methylpiperidin-4-yl)pyridin-2-yl)pyrimidin-2-amine] | 20 to 200 | ≤ 20
CCN1CCN(Cc2ccc(Nc3ncc(F)c(-c4sc5c(nc(C)n5C5CCC5)c4C)n3)nc2)CC1 [Example 10, 4-(3-Cyclobutyl-2,6-dimethylthieno[2,3-d]imidazol-5-yl)-N-[5-[(4-ethylpiperazin-1-yl)methyl]pyridin-2-yl]-5-fluoropyrimidin-2-amine] | 200 to 2000 | ≤ 20
CCN1CCN(Cc2ccc(Nc3ncc(F)c(-c4sc5c(nc(C)n5C5CCCC5)c4C)n3)nc2)CC1 [Example 12, 4-(3-Cyclopentyl-2,6-dimethyl-3H-thieno[2,3-d]imidazol-5-yl)-N-(5-((4-ethylpiperazin-1-yl)methyl)pyridin-2-yl)-5-fluoropyrimidin-2-amine] |  | 200 to 2000
CCN1CC2(C1)CN(c1ccc(Nc3ncc(F)c(-c4cc5nccc(C6CCCC6)c5s4)n3)nc1)C2 [Example 15, 4-(7-Cyclopentylthieno[3,2-b]pyridin-2-yl)-N-[5-(6-ethyl-2,6-diazaspiro[3.3]heptan-2-yl)pyridin-2-yl]-5-fluoropyrimidin-2-amine] |  | ≤ 20
Cc1c(-c2nc(Nc3ccc(N4CCNCC4)cn3)ncc2F)sc2c(C3CCCC3)ccnc12 [Example 35, 4-(7-Cyclopentyl-3-methylthieno[3,2-b]pyridin-2-yl)-5-fluoro-N-(5-(piperazin-1-yl)pyridin-2-yl)pyrimidin-2-amine] |  | ≤ 20
Cc1nc2cc(-c3nc(Nc4ccc(CN5CCC(C(=O)N(C)C)C5)cn4)ncc3F)sc2n1C(C)C (stereo not drawn) [Example 65, 1-[[6-[[5-Fluoro-4-(2-methyl-3-propan-2-ylthieno[2,3-d]imidazol-5-yl)pyrimidin-2-yl]amino]pyridin-3-yl]methyl]-N,N-dimethylpyrrolidine-3-carboxamide] |  | 20 to 200
Cc1nc2cc(-c3nc(Nc4cccnn4)ncc3F)sc2n1C(C)C [Example 107, N-(5-Fluoro-4-(3-isopropyl-2-methyl-3H-thieno[2,3-d]imidazol-5-yl)pyrimidin-2-yl)pyridazin-3-amine] |  | 20 to 200
CN1CCC(c2ccc(Nc3ncc(F)c(-c4cc5c(=O)n(C)nc(C67CC(F)(C6)C7)c5s4)n3)nc2)CC1 [Example 110, 2-(5-Fluoro-2-((5-(1-methylpiperidin-4-yl)pyridin-2-yl)amino)pyrimidin-4-yl)-7-(3-fluorobicyclo[1.1.1]pentan-1-yl)-5-methylthieno[2,3-d]pyridazin-4(5H)-one] |  | 200 to 2000
CCN1CCN(c2cccc(Nc3ncc(F)c(-c4sc5c(nc(C)n5C(C)C)c4C)n3)n2)CC1 [Example 113, 4-(2,6-Dimethyl-3-propan-2-ylthieno[2,3-d]imidazol-5-yl)-N-[6-(4-ethylpiperazin-1-yl)pyridin-2-yl]-5-fluoropyrimidin-2-amine] |  | 200 to 2000
CCN1CCN(C(C)c2ccc(Nc3ncc(F)c(-c4cc5nc(C)n(C(C)C)c5s4)n3)nc2)CC1 (stereo not drawn) [Example 116, N-[5-[1-(4-Ethylpiperazin-1-yl)ethyl]pyridin-2-yl]-5-fluoro-4-(2-methyl-3-propan-2-ylthieno[2,3-d]imidazol-5-yl)pyrimidin-2-amine] |  | ≤ 20
Cc1nc2cc(-c3nc(Nc4ccc(C5C(=O)N(C)CCN5C)cn4)ncc3F)sc2n1C(C)C (stereo not drawn) [Example 117, 3-[6-[[5-Fluoro-4-(2-methyl-3-propan-2-ylthieno[2,3-d]imidazol-5-yl)pyrimidin-2-yl]amino]pyridin-3-yl]-1,4-dimethylpiperazin-2-one] |  | ≤ 20
CCN1CCN(c2ccnc(Nc3ncc(F)c(-c4sc5c(nc(C)n5C(C)C)c4C)n3)c2)CC1 [Example 119, 4-(2,6-Dimethyl-3-propan-2-ylthieno[2,3-d]imidazol-5-yl)-N-[4-(4-ethylpiperazin-1-yl)pyridin-2-yl]-5-fluoropyrimidin-2-amine] |  | 200 to 2000
COc1cnc(Nc2ccc(C3CCN(C)CC3)cn2)nc1-c1cc2nc(C)n(C(C)C)c2s1 [Example 127, 4-(3-Isopropyl-2-methyl-3H-thieno[2,3-d]imidazol-5-yl)-5-methoxy-N-(5-(1-methylpiperidin-4-yl)pyridin-2-yl)pyrimidin-2-amine] |  | 20 to 200

More lines, now with the values ahead:

IC50 [1] [nM] | IC50 [2] [nM] | SMILES
20 to 200 | ≤ 20 | Cc1c(-c2nc(Nc3ccc(N4CCN(C)CC4)cn3)ncc2F)sc2c1nc(C)n2C1CCCC1 [Example 7, 4-(3-Cyclopentyl-2,6-dimethyl-3H-thieno[2,3-d]imidazol-5-yl)-5-fluoro-N-(5-(4-methyl-piperazin-1-yl)pyridin-2-yl)pyrimidin-2-amine]
200 to 2000 | 20 to 200 | Cc1c(-c2nc(Nc3ccc(N4CCC(F)(F)C4)cn3)ncc2F)sc2c1nc(C)n2C1CCCC1 [Example 11, 4-(3-Cyclopentyl-2,6-dimethyl-3H-thieno[2,3-d]imidazol-5-yl)-N-(5-(3,3-difluoropyrrolidin-1-yl)pyridin-2-yl)-5-fluoro-pyrimidin-2-amine]
 | ≤ 20 | Cc1c(-c2nc(Nc3ccc(N4CC5(CN(C)CC5(F)F)C4)cn3)ncc2F)sc2c1nc(C)n2C(C)C [Example 70, N-[5-(5,5-Difluoro-7-methyl-2,7-diazaspiro[3.4]octan-2-yl)pyridin-2-yl]-4-(2,6-dimethyl-3-propan-2-ylthieno[2,3-d]imidazol-5-yl)-5-fluoropyrimidin-2-amine]
 | ≤ 20 | Cc1c(-c2nc(Nc3ccc(N4CCC5(CCN(C)C5)C4)cn3)ncc2F)sc2c(C(C)C)cn(C)c(=O)c12 (stereo not drawn) [Example 76, 2-(5-Fluoro-2-((5-(7-methyl-2,7-diazaspiro[4.4]nonan-2-yl)pyridin-2-yl)amino)pyrimidin-4-yl)-7-isopropyl-3,5-dimethylthieno[3,2-c]pyridin-4(5H)-one]
 | 20 to 200 | CCN1CC2(C1)CN(c1ccc(Nc3ncc(F)c(-c4sc5c(C6CC6)n(C)nc5c4C)n3)nc1)C2 [Example 101, 4-(3-Cyclopropyl-2,6-dimethyl-2H-thieno[3,2-c]pyrazol-5-yl)-N-(5-(6-ethyl-2,6-diazaspiro[3.3]heptan-2-yl)pyridin-2-yl)-5-fluoropyrimidin-2-amine]
 | 200 to 2000 | CCN1CCN(c2ccc(Nc3ncc(F)c(-c4sc5c(C(C)=O)n(C)nc5c4C)n3)nc2)CC1 [Example 103, 1-(5-(2-((5-(4-ethylpiperazin-1-yl)pyridin-2-yl)amino)-5-fluoropyrimidin-4-yl)-2,6-dimethyl-2H-thieno[3,2-c]pyrazol-3-yl)ethan-1-one]
 | 20 to 200 | CCN1CCN(c2ccc(Nc3ncc(F)c(-c4sc5c(C(C)O)n(C)nc5c4C)n3)nc2)CC1 (stereo not drawn) [Example 104, 1-(5-(2-((5-(4-Ethylpiperazin-1-yl)pyridin-2-yl)amino)-5-fluoropyrimidin-4-yl)-2,6-dimethyl-2H-thieno[3,2-c]pyrazol-3-yl)ethan-1-ol]
 | 200 to 2000 | CCN1CCN(c2ccc(Nc3ncc(F)c(-c4sc5c(C(C)C)nn(C)c5c4C)n3)nc2)CC1 [Example 106, 4-(1,6-Dimethyl-3-propan-2-ylthieno[3,2-c]pyrazol-5-yl)-N-[5-(4-ethylpiperazin-1-yl)pyridin-2-yl]-5-fluoropyrimidin-2-amine]
 | 20 to 200 | CCN1CCN(c2ccc(Nc3ncc(F)c(-c4sc5c(C(C)C)ccnc5c4C#N)n3)nc2)CC1 [Example 122, 2-(2-((5-(4-Ethylpiperazin-1-yl)pyridin-2-yl)amino)-5-fluoropyrimidin-4-yl)-7-isopropylthieno[3,2-b]pyridine-3-carbonitrile]

— patent publication US11685744B2, “CDK inhibitors and their use as pharmaceuticals” (Prelude Therapeutics, Incorporated, priority 2020, dated 2023)
